Converted amounts (≈) assume the structure as drawn.
Assays:
Experiment in all cases: ≥ marks a high value that may be exact or a test limit, other limits are often not marked, values filed in µg/mL are converted to µM
[1] = system: Staphylococcus aureus ATCC 29213
Salmonella sp. = system: Salmonella sp.
[2] = system: Escherichia coli ATCC 25922
[3] = system: Salmonella enterica subsp. enterica serovar Enteritidis
Escherichia coli = system: Escherichia coli
Yersinia enterocolitica = system: Yersinia enterocolitica
[4] = system: Staphylococcus aureus ATCC 43300
[5] = system: Candida albicans ATCC 10231
[6] = system: Staphylococcus aureus ATCC 25923
[7] = system: Enterococcus faecalis PCM 2673
[8] = system: Pseudomonas aeruginosa ATCC 9027
[9] = system: Batrachochytrium dendrobatidis
Bacillus subtilis 168 HT = system: Bacillus subtilis 168 HT
[10] = system: Staphylococcus haemolyticus 527
[11] = system: Escherichia coli K12 MG1655
[12] = system: Staphylococcus aureus ST88
[13] = system: Pseudomonas aeruginosa CCARM 2095
[14] = system: Acinetobacter baumannii CCARM 12035
[15] = system: Pseudomonas aeruginosa KCTC 1637
[16] = system: Escherichia coli KCTC 1682
[17] = system: Salmonella typhimurium KCTC 1926
[18] = system: Escherichia coli CCARM 1229
[19] = system: Staphylococcus aureus KCTC 1621
[20] = system: Salmonella typhimurium CCARM 8009
[21] = system: Enterococcus faecalis KCTC 2011
[22] = system: Bacillus subtilis KCTC 3068
Leuconostoc lactis = system: Leuconostoc lactis
Streptococcus uberis = system: Streptococcus uberis
[23] = system: Staphylococcus epidermidis ATCC 14990
[24] = system: Micrococcus luteus ATCC 9341
[25] = system: Pseudomonas aeruginosa ATCC 27853

## CC[C@H](C)[C@H](NC(=O)[C@H](CCCCN)NC(=O)[C@@H](NC(=O)[C@H](CCC(N)=O)NC(=O)[C@@H](N)CCCN=C(N)N)[C@@H](C)CC)C(=O)N[C@@H](Cc1c[nH]c2ccccc12)C(=O)N[C@@H](CCCN=C(N)N)C(=O)N[C@@H](CCCN=C(N)N)C(=O)N[C@@H](CCSC)C(=O)N[C@@H](CCCCN)C(=O)N[C@@H](Cc1c[nH]c2ccccc12)C(=O)N[C@@H](CCCCN)C(=O)N[C@@H](CCCCN)C(N)=O [RQIKIWRRMKWKK]
[1]
  MIC: 26.9 µM (≈ 50 µg/mL)
Salmonella sp.
  MIC: 2.69 µM (≈ 5 µg/mL)
[2]
  MIC: 3.37 µM (≈ 6.25 µg/mL)
[3]
  MIC: 6.73 µM (≈ 12.5 µg/mL)
Escherichia coli
  MIC: 3.01 µM (≈ 5.59 µg/mL)
Yersinia enterocolitica
  MIC: 3.37 µM (≈ 6.25 µg/mL)
[4]
  MIC: 13.5 µM (≈ 25 µg/mL)

## CC[C@H](C)[C@H](NC(=O)[C@H](CC(=O)O)NC(=O)[C@H](Cc1ccccc1)NC(=O)[C@H](CC(C)C)NC(=O)CN)C(=O)N[C@H](C(=O)N[C@@H](CCCCN)C(=O)N[C@@H](CCCCN)C(=O)N[C@@H](C)C(=O)N[C@@H](C)C(=O)N[C@@H](CCC(=O)O)C(=O)N[C@@H](CO)C(=O)N[C@@H](Cc1ccccc1)C(N)=O)[C@@H](C)CC [GLFDIIKKAAESF]
[5]
  MIC: 356 µM (≈ 512 µg/mL)
[6]
  MIC: > 356 µM
[2]
  MIC: 356 µM (≈ 512 µg/mL)
[7]
  MIC: ≥ 89 µM
[8]
  MIC: > 356 µM

## CC[C@H](C)[C@H](NC(=O)CNC(=O)[C@H](CO)NC(=O)[C@H](CC(C)C)NC(=O)[C@@H](NC(=O)[C@H](CCCN=C(N)N)NC(=O)CNC(=O)[C@@H](NC(=O)[C@H](CC(C)C)NC(=O)[C@@H]1CCCN1C(=O)[C@H](CC(C)C)NC(=O)[C@@H](N)Cc1c[nH]c2ccccc12)[C@@H](C)CC)C(C)C)C(=O)N[C@@H](CC(C)C)C(N)=O [WLPLIGRVLSGIL]
[9]
  MIC: 25.1 µM (≈ 36 µg/mL)

## CC[C@H](C)[C@H](NC(=O)[C@H](C)NC(=O)[C@H](Cc1ccccc1)NC(=O)[C@H](CC(C)C)NC(=O)CN)C(=O)N[C@H](C(=O)N[C@@H](CCCCN)C(=O)N[C@@H](CCCCN)C(=O)N[C@H](C(=O)N[C@@H](C)C(=O)N[C@@H](CCC(=O)O)C(=O)N[C@@H](CO)C(=O)N[C@@H](Cc1ccccc1)C(N)=O)[C@@H](C)CC)[C@@H](C)CC [GLFAIIKKIAESF]
[5]
  MIC: 44.5 µM (≈ 64 µg/mL)
[6]
  MIC: 11.1 µM (≈ 16 µg/mL)
[2]
  MIC: 5.57 µM (≈ 7.99 µg/mL)
[7]
  MIC: 22.3 µM (≈ 32 µg/mL)
[8]
  MIC: 44.5 µM (≈ 64 µg/mL)

## CC[C@H](C)[C@H](NC(=O)[C@H](Cc1cnc[nH]1)NC(=O)[C@@H](NC(=O)[C@H](CC(C)C)NC(=O)[C@@H](NC(=O)[C@@H](NC(=O)[C@H](CCCN=C(N)N)NC(=O)[C@H](CC(C)C)NC(=O)[C@H](Cc1c[nH]c2ccccc12)NC(=O)[C@H](CO)NC(=O)[C@H](CCCCN)NC(=O)[C@@H](NC(=O)[C@H](CC(C)C)NC(=O)[C@H](Cc1cnc[nH]1)NC(=O)[C@@H](NC(=O)[C@@H](NC(=O)[C@@H](NC(=O)[C@H](Cc1cnc[nH]1)NC(=O)[C@H](CC(C)C)NC(=O)[C@H](CCC(N)=O)NC(=O)[C@H](CCCCN)NC(=O)[C@H](Cc1ccccc1)NC(=O)[C@H](CO)NC(=O)[C@H](CCCCN)NC(=O)CNC(=O)[C@H](CCCCN)NC(=O)[C@@H](N)CCCCN)[C@@H](C)CC)[C@@H](C)CC)C(C)C)C(C)C)[C@@H](C)O)[C@@H](C)CC)[C@@H](C)O)C(=O)O [KKGKSFKQLHIIVHLVKSWLRTILTHI]
Bacillus subtilis 168 HT
  MIC: 10 µM (≈ 32.2 µg/mL)
[10]
  MIC: 10 µM (≈ 32.2 µg/mL)
[11]
  MIC: 10 µM (≈ 32.2 µg/mL)
[12]
  MIC: 19.9 µM (≈ 64.2 µg/mL)

## CC[C@H](C)[C@H](NC(=O)CNC(=O)[C@H](CC(=O)O)NC(=O)[C@H](CCCN=C(N)N)NC(=O)[C@@H](NC(=O)[C@H](CC(N)=O)NC(=O)[C@H](CCCN=C(N)N)NC(=O)CNC(=O)[C@@H](NC(=O)[C@H](CCCCN)NC(=O)[C@H](CCC(=O)O)NC(=O)[C@@H](NC(=O)[C@H](CCCCN)NC(=O)[C@H](CCCCN)NC(=O)[C@H](Cc1c[nH]c2ccccc12)NC(=O)[C@@H](NC(=O)[C@H](CCCCN)NC(=O)[C@H](Cc1ccccc1)NC(=O)[C@@H](N)CCCN=C(N)N)[C@@H](C)CC)[C@@H](C)CC)C(C)C)C(C)C)C(=O)N[C@H](C(=O)N[C@@H](CCCCN)C(=O)N[C@@H](C)C(N)=O)[C@@H](C)CC [RFKIWKKIEKVGRNVRDGIIKA]
[13]
  MIC: 2 µM (≈ 5.31 µg/mL)
[14]
  MIC: 4 µM (≈ 10.6 µg/mL)
[15]
  MIC: 2 µM (≈ 5.31 µg/mL)
[16]
  MIC: 1 µM (≈ 2.65 µg/mL)
[17]
  MIC: 2 µM (≈ 5.31 µg/mL)
[18]
  MIC: 2 µM (≈ 5.31 µg/mL)
[19]
  MIC: 16 µM (≈ 42.5 µg/mL)
[20]
  MIC: 2 µM (≈ 5.31 µg/mL)
[21]
  MIC: ≥ 64 µM
[22]
  MIC: 8 µM (≈ 21.2 µg/mL)

## CC[C@H](C)[C@H](NC(=O)CNC(=O)[C@H](CC(=O)O)NC(=O)[C@H](CCCN=C(N)N)NC(=O)[C@@H](NC(=O)[C@H](CC(N)=O)NC(=O)[C@H](CCCN=C(N)N)NC(=O)CNC(=O)[C@@H](NC(=O)[C@H](CCCCN)NC(=O)[C@H](CCC(=O)O)NC(=O)[C@@H](NC(=O)[C@H](CCCCN)NC(=O)[C@H](CCCCN)NC(=O)[C@H](Cc1ccccc1)NC(=O)[C@@H](NC(=O)[C@H](CCCCN)NC(=O)[C@H](C)NC(=O)[C@@H](N)CCCN=C(N)N)[C@@H](C)CC)[C@@H](C)CC)C(C)C)C(C)C)C(=O)N[C@H](C(=O)N[C@@H](CCCCN)C(=O)N[C@@H](C)C(N)=O)[C@@H](C)CC [RAKIFKKIEKVGRNVRDGIIKA]
[13]
  MIC: 4 µM (≈ 10.2 µg/mL)
[14]
  MIC: 8 µM (≈ 20.3 µg/mL)
[15]
  MIC: 4 µM (≈ 10.2 µg/mL)
[16]
  MIC: 2 µM (≈ 5.08 µg/mL)
[17]
  MIC: 4 µM (≈ 10.2 µg/mL)
[18]
  MIC: 2 µM (≈ 5.08 µg/mL)
[19]
  MIC: ≥ 32 µM
[20]
  MIC: 2 µM (≈ 5.08 µg/mL)
[21]
  MIC: ≥ 128 µM
[22]
  MIC: ≥ 32 µM

## CC[C@H](C)[C@H](NC(=O)[C@H](CC(C)C)NC(=O)[C@@H](N)C(C)C)C(=O)N[C@@H](CCCN=C(N)N)C(=O)NCC(=O)N[C@@H](CC(C)C)C(=O)N[C@H](C(=O)N[C@@H](Cc1cnc[nH]1)C(=O)N[C@@H](CCSC)C(=O)N[C@@H](CC(C)C)C(=O)N[C@@H](CCCN=C(N)N)C(=O)NCC(=O)NCC(=O)O)[C@@H](C)CC [VLIRGLIHMLRGG]
Bacillus subtilis 168 HT
  MIC: 22.4 µM (≈ 32.1 µg/mL)
[10]
  MIC: ≥ 100 µM
[11]
  MIC: ≥ 100 µM
[12]
  MIC: ≥ 100 µM

## CC[C@H](C)[C@H](NC(=O)[C@H](CC(C)C)NC(=O)[C@H](Cc1cnc[nH]1)NC(=O)CNC(=O)[C@@H](NC(=O)[C@@H](NC(=O)CNC(=O)[C@@H](NC(=O)[C@@H](NC(=O)[C@H](CCCCN)NC(=O)[C@@H]1CCCN1C(=O)[C@H](CC(C)C)NC(=O)[C@H](Cc1ccccc1)NC(=O)[C@H](CO)NC(=O)[C@H](CC(C)C)NC(=O)[C@H](CC(C)C)NC(=O)CN)C(C)C)[C@@H](C)CC)C(C)C)[C@@H](C)CC)C(=O)N[C@@H](Cc1cnc[nH]1)C(=O)N1CCC[C@H]1C(=O)N1CCC[C@H]1C(=O)N[C@@H](CO)C(=O)O [GLLSFLPKVIGVIGHLIHPPS]
Leuconostoc lactis
  MIC: 12 µM (≈ 26.3 µg/mL)
Streptococcus uberis
  MIC: ≥ 50 µM
[23]
  MIC: ≥ 100 µM
[24]
  MIC: ≥ 100 µM

## CC[C@H](C)[C@H](NC(=O)[C@H](CCC(N)=O)NC(=O)[C@@H](N)CCCN=C(N)N)C(=O)N[C@@H](CCCN=C(N)N)C(=O)N[C@@H](Cc1c[nH]c2ccccc12)C(=O)N[C@@H](CCC(N)=O)C(=O)N[C@@H](CCCN=C(N)N)C(N)=O [RQIRWQR]
[1]
  MIC: > 50 µM
Salmonella sp.
  MIC: ≥ 50 µM
[2]
  MIC: > 50 µM
[3]
  MIC: ≥ 50 µM
Escherichia coli
  MIC: > 50 µM
Yersinia enterocolitica
  MIC: ≥ 50 µM
[4]
  MIC: > 50 µM
[25]
  MIC: > 50 µM

— DBAASP
